Data published in the NIST ThermoML archive (doi:10.1021/je049919e).

Experiments:
[1] = xn = mol fraction of the nth substance listed; conditions: Ring tensiometer
[2] = Ring tensiometer

CC1CCCCC1O (stereo not given) [2-methylcyclohexanol] + OCCO
surface tension liquid-gas [mN/m], [1]
Conditions	293.15 K	298.15 K	303.15 K	308.15 K	313.15 K	318.15 K	323.15 K
x1 = 0.04	40.61	40.3	39.94	39.67	39.4	39.13	38.89
x1 = 0.105	36.13	35.89	35.62	35.32	35.07	34.81	34.56
x1 = 0.2	34.46	34.17	33.85	33.55	33.26	32.98	32.68
x1 = 0.307	33.49	33.2	32.88	32.58	32.22	31.94	31.63
x1 = 0.399	32.94	32.61	32.26	31.96	31.62	31.31	30.97
x1 = 0.514	32.38	32.03	31.68	31.33	30.98	30.69	30.36
x1 = 0.553	32.22	31.87	31.54	31.19	30.81	30.49	30.13
x1 = 0.76	31.72	31.36	30.97	30.61	30.29	29.91	29.52
x1 = 0.791	31.51	31.1	30.73	30.38	30	29.59	29.24
x1 = 0.892	31.2	30.78	30.39	30.05	29.67	29.27	28.87
x1 = 1	31.01	30.57	30.19	29.81	29.37	28.98	28.57

OCCO [1,2-ethanediol] + CC1CCC(O)CC1
[1], x2 = 0
Conditions	surface tension liquid-gas [mN/m]
293.15 K	48.55
298.15 K	48.11
303.15 K	47.58
308.15 K	47.14
313.15 K	46.79
318.15 K	46.29
323.15 K	45.99

CC1CCCC(O)C1 (stereo not drawn) [3-methyl-1-cyclohexanol, (cis+trans)] + OCCO
surface tension liquid-gas [mN/m], [1]
Conditions	293.15 K	298.15 K	303.15 K	308.15 K	313.15 K	318.15 K	323.15 K
x1 = 0.05	36.72	36.51	36.29	36.07	35.88	35.66	35.44
x1 = 0.097	34.08	33.87	33.67	33.46	33.26	33.08	32.89
x1 = 0.258	31.57	31.25	30.97	30.7	30.42	30.15	29.91
x1 = 0.329	30.94	30.6	30.32	30.01	29.75	29.48	29.17
x1 = 0.389	30.57	30.23	29.98	29.65	29.38	29.09	28.76
x1 = 0.535	29.84	29.51	29.19	28.86	28.57	28.28	27.96
x1 = 0.623	29.39	29.05	28.75	28.43	28.14	27.82	27.42
x1 = 0.768	28.85	28.47	28.16	27.8	27.46	27.18	26.84
x1 = 0.864	28.43	28.02	27.68	27.34	27.03	26.69	26.33
x1 = 0.899	28.24	27.9	27.56	27.24	26.85	26.5	26.18
x1 = 1	27.82	27.48	27.12	26.76	26.4	26.06	25.7

OCCO [1,2-ethanediol] + CC1CCCC(O)C1
[1], x2 = 0
Conditions	surface tension liquid-gas [mN/m]
293.15 K	48.55
298.15 K	48.11
303.15 K	47.58
308.15 K	47.14
313.15 K	46.79
318.15 K	46.29
323.15 K	45.99

CC1CCCCC1O (stereo not given) [2-methylcyclohexanol]
[2]
Conditions	surface tension liquid-gas [mN/m]
293.15 K	31.01
298.15 K	30.57
303.15 K	30.19
308.15 K	29.81
313.15 K	29.37
318.15 K	28.98
323.15 K	28.57

CC1CCCC(O)C1 (stereo not drawn) [3-methyl-1-cyclohexanol, (cis+trans)]
[2]
Conditions	surface tension liquid-gas [mN/m]
293.15 K	27.82
298.15 K	27.48
303.15 K	27.12
308.15 K	26.76
313.15 K	26.4
318.15 K	26.06
323.15 K	25.7

CC1CCC(O)CC1 (stereo not given) [4-methylcyclohexanol] + OCCO
surface tension liquid-gas [mN/m], [1]
Conditions	293.15 K	298.15 K	303.15 K	308.15 K	313.15 K	318.15 K	323.15 K
x1 = 0.05	38.1	37.85	37.64	37.39	37.15	36.9	36.69
x1 = 0.097	34.38	34.18	33.98	33.78	33.6	33.4	33.21
x1 = 0.258	32.47	32.24	32.03	31.79	31.57	31.34	31.1
x1 = 0.329	31.48	31.24	30.99	30.74	30.48	30.26	30.01
x1 = 0.389	30.64	30.37	30.08	29.81	29.55	29.32	29.04
x1 = 0.535	30.35	30.05	29.77	29.48	29.23	28.96	28.68
x1 = 0.623	29.63	29.34	29.02	28.74	28.48	28.18	27.88
x1 = 0.768	29.21	28.92	28.6	28.29	28.02	27.73	27.4
x1 = 0.864	28.71	28.41	28.07	27.76	27.47	27.18	26.84
x1 = 0.899	28.07	27.75	27.43	27.11	26.77	26.45	26.15
x1 = 1	27.63	27.3	26.98	26.61	26.31	25.96	25.63

CC1CCC(O)CC1 (stereo not given) [4-methylcyclohexanol]
[2]
Conditions	surface tension liquid-gas [mN/m]
293.15 K	27.63
298.15 K	27.3
303.15 K	26.98
308.15 K	26.61
313.15 K	26.31
318.15 K	25.96
323.15 K	25.63

OCCO [1,2-ethanediol] + CC1CCCCC1O
[1], x2 = 0
Conditions	surface tension liquid-gas [mN/m]
293.15 K	48.55
298.15 K	48.11
303.15 K	47.58
308.15 K	47.14
313.15 K	46.79
318.15 K	46.29
323.15 K	45.99

OCCO [1,2-ethanediol]
[2]
Conditions	surface tension liquid-gas [mN/m]
293.15 K	48.55
298.15 K	48.11
303.15 K	47.58
308.15 K	47.14
313.15 K	46.79
318.15 K	46.29
323.15 K	45.99
